Reference: patent US8865426B2, “Screening method using gelatinase-mediated EphA4 cleavage reaction as an indicator” (Eisai R&D Management Co., Ltd., priority 2010, dated 2014)

Key:
[1] = tested on: gelatinase (MMP-2, MMP-9)-mediated EphA4 ectodomain cleavage reaction; experiment: Western blot assay of NMDA-induced EphA4 cleavage (EphA4 endodomain fragment) in hippocampal primary cultured neurons; format: cell-based, rat
Protocol: (§1) With the aim of identifying proteases which cleave off the EphA4 ectodomain in a neuronal activity-dependent manner, analysis was first performed using a specific inhibitor of gelatinase family molecules (MMP-2, MMP-9) having important functions in the brain. Neurostimulation was performed with 50 μM NMDA, and the inhibitor used was mmp-2/9 Inhibitor II ((2R)-[(4-biphenylylsulfonyl)amino]-N-hydroxy-3-phenylpropionamide, Merck). For detection of cleavage reaction, two types of antibody-based assays were used, i.e., Western blot assay using an antibody capable of recognizing the EphA4 endodomain and ELISA assay using an antibody capable of recognizing the EphA4 ectodomain.
(§2) Hippocampi were isolated from SD rats at 18 days of embryonic age (Charles River Laboratories, Inc.) and provided for culture. More specifically, fetuses were aseptically taken from pregnant rats. From these fetuses, brains were excised and soaked in 20% FBS (Hyclone)/HBSS (SIGMA). From the excised brains, hippocampi were collected under a stereoscopic microscope. […] On the other hand, the neuronal cells were collected with PBS and then quantified for their protein levels, and 10 μg aliquots were subjected to SDS-PAGE, followed by Western blotting with an anti-EphA4 antibody capable of recognizing the endodomain.

[2] = tested on: gelatinase (MMP-2, MMP-9)-mediated EphA4 ectodomain cleavage reaction; experiment: ELISA assay of NMDA-induced EphA4 cleavage (EphA4 ectodomain in cultured solution) in hippocampal primary cultured neurons; format: cell-based, rat
Protocol: as §1, §2

| SMILES | induction of EphA4 cleavage reaction (EphA4 endodomain fragment detected) ([1]; hippocampal neuronal cells, 50 μM NMDA, 30 minutes, FIG. 2) | EphA4 cleavage reaction (EphA4 endodomain fragment, Western blot) ([1]; hippocampal neuronal cells stimulated with 50 μM NMDA, 0, 1, 5, 10 or 25 μM inhibitor added, FIG. 2A) | neuronal activity-dependent EphA4 ectodomain cleavage reaction in hippocampal primary cultured neurons (summary statement) ([2]; concentration not given) | EphA4 cleavage event detected by ELISA with antibody recognizing the EphA4 ectodomain ([2]; hippocampal neuronal cells stimulated with 50 μM NMDA, 5 μM inhibitor, FIG. 2B) |
| --- | --- | --- | --- | --- |
| CN[C@H](CC(=O)O)C(=O)O [NMDA] | induced |  |  |  |
| O=C(NO)[C@@H](Cc1ccccc1)NS(=O)(=O)c1ccc(-c2ccccc2)cc1 [mmp-2/9 Inhibitor II, (2R)-[(4-Biphenylylsulfonyl)amino]-N-hydroxy-3-phenylpropionamide] |  | inhibited in a concentration-dependent manner | completely inhibited | completely inhibited |
